Data on 5 compounds can be found in US9617267B2, “Compounds and methods for kinase modulation, and indications therefor” (Plexxikon Inc., priority 2009, dated 2017).

Like-named read-outs stand apart in the source and are kept apart here. A value given as a limit tells only on which side of the number the result lay.

One data set addresses B-Raf V600E (Homo sapiens (Human), UniProt P15056, V600E). Nature of the data set: B-Raf V600E kinase activity biochemical assay (AlphaScreen, biotin-MEK1 phosphorylation). As to conditions: for IC50: B-Raf V600E; for Biochemical activity ratio V600E/C: ratio of IC50 B-Raf V600E / c-Raf-1. The method, then: (§1) Compounds to be tested are diluted in dimethyl sulfoxide to a concentration of 0.1 mM. These are serially diluted 15 μL into 30 μL of dimethyl sulfoxide seven times in 96 well plates for a total of 8 dilution points, and for each dilution point 1 μL is added to a well of an assay plate. […] The reaction is started with addition of 10 μL of 200 μM ATP (i.e. final 100 μM ATP). After incubation of the kinase reaction for 45 minutes at room temperature, 5 μL/well of Stop Solution is added (25 mM Hepes pH 7.5, 100 mM EDTA, 0.01% BSA with donor beads (Streptavidin coated beads, Perkin Elmer), acceptor beads (Protein A coated, Perkin Elmer), and anti phosphor MEK1/2 antibody (CellSignal), each at final concentration 10 μg/mL). The plates are incubated for 3 hours at room temperature and read on Envision reader (Perkin Elmer). […] The signal vs. compound concentration is used to determine the IC50.
In general terms: In Alpha technology, singlet oxygen from a donor bead excites a nearby acceptor bead.

The target in the next data set is CYP3A4(BFC) (Homo sapiens (Human), UniProt P08684). Nature of the data set: CYP enzyme inhibition, fluorescent substrate BFC. The method, then: (§2) CYP (Cytochrome P450) enzymes are the major drug metabolizing enzymes present in the liver. The inhibition of CYP enzyme activity (IC50) for each of CYP1A2, CYP2C19, CYP2C9, CYP2D6, CYP3A4(BFC) and CYP3A4(BQ) is determined for compounds, where inhibition of metabolism of a known substrate leads to a decrease in the fluorescence of the metabolized product. The fluorescence of the product is monitored as a function of compound concentration.
CYP3A4(BFC), sequence (P08684 whole entry): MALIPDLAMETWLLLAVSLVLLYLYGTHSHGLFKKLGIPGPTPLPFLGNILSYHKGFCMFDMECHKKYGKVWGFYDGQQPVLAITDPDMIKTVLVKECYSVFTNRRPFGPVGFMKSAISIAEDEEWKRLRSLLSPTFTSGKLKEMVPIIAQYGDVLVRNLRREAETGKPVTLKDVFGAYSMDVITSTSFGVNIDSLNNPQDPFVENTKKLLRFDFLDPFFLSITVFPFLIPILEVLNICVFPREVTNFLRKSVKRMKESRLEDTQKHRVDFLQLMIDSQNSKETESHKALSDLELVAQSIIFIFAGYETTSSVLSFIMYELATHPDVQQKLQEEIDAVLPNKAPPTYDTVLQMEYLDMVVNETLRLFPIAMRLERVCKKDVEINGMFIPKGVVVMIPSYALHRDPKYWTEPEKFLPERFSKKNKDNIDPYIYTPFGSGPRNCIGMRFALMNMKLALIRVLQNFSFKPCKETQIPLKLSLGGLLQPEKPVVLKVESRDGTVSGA
(§3) Compounds are dissolved in dimethyl sulfoxide to a concentration of 100 mM. These are diluted 1 μL into 82 μL of acetonitrile. […] These are then serially diluted 1:1 (160 μL to 160 μL co-factor mix) for a total of 10 points. A 10 μL aliquot of this final mixture is dispensed into 384 well assay plates and incubated for 10 minutes at 37° C. […] Assay plates are incubated at 37° C. […] The signal versus compound concentration is used to determine the IC50. The enzymes and substrates for this assay are obtained from BD Biosciences.

The nature of data set [1]: Relative solubility by turbidity threshold concentration in aqueous buffers (pH 1.5, 4.5, 6.8, 7.4). As to conditions: for turbidity threshold (L, M, H) 1.4: pH 1.4 [sic] (method: SGF pH 1.5); for turbidity threshold (L, M, H) 4.5: pH 4.5 (SIF); for turbidity threshold (L, M, H) 6.8: pH 6.8 (SIF); for turbidity threshold (L, M, H) 7.4: pH 7.4 (HEPES). It counts as physicochemical. Here is the method:
As an indication of relative solubility, the turbidity of compounds in aqueous solutions is assessed. To assess possible compound properties in different physiological compartments, such as stomach, intestine, and blood, a series of aqueous buffers with varying pH is used. Thus each compound is diluted into four different physiologically relevant buffers and solution turbidity is measured by spectrophotometry.
Compounds are dissolved at a concentration of 25 mM in dimethyl sulfoxide, then serially diluted 1:1 into a 96 well plate, diluting 10 times in pure dimethyl sulfoxide, with the final well of each row a dimethyl sulfoxide blank. In an assay plate, 99 μL of appropriate buffer is added to each well, and 1 μL of each sample dilution is added to the buffer, achieving a range of final total concentrations in aqueous solutions having different pH. The buffers used are Simulated Gastric Fluid (SGF-pH 1.5) 0.5M NaCl, pH 1.5; Simulated Intestinal fluid (SIF-pH 4.5 and pH 6.8) 0.05M NaH2PO4, pH 4.5 and 6.8; and Hepes Buffer (HEPES-pH 7.4) 10 mM HEPES, 150 mM NaCl, pH 7.4. Control compounds pyrene, estriol and propranolol HCl are also assessed. Plates are spun and then mixed for 1 minute, and the absorbance is read using a Tecan Safire II to read wavelengths in the visible range (490, 535, and 650 nm) at four locations per well, reflecting the degree of turbidity present. The average optical density for each wavelength in each well is graphed vs. compound concentration, and the concentration at which the curve crosses a threshold O.D. of 0.01 for each wavelength is reported as the endpoint turbidity assay result. The average of the three wavelengths is used to compare turbidity of compounds. Compounds are considered to have low solubility if the threshold concentration is <31.3 μM, moderate solubility if the threshold concentration is 31.3 μM to 250 μM, and high solubility if the threshold concentration is >250 μm.
The following table indicates the relative solubility (L=low, M=moderate, H=high) based on turbidity threshold concentration at each pH for exemplary compounds according to the invention as indicated: […]

The target of the next data set is CYP2C19 (Homo sapiens (Human), UniProt P33261). Nature of the data set: CYP enzyme inhibition, fluorescent substrate (CEC). Here is the method: as §2, §3
CYP2C19, sequence (P33261 whole entry): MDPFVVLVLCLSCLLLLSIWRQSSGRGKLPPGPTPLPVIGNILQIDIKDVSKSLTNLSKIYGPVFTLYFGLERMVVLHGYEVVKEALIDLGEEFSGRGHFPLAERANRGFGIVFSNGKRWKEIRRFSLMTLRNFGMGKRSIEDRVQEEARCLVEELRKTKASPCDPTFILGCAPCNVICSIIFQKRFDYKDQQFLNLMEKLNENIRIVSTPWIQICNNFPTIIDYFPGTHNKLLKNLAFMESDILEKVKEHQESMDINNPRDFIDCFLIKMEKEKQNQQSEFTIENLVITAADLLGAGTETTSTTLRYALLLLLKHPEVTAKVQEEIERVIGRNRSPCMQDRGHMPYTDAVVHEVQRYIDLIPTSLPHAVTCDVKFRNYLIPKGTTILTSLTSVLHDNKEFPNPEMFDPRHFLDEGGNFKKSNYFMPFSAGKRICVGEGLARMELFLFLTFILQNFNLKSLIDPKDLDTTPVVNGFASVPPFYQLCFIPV
Another data set has as its target CYP2C9 (Homo sapiens (Human), UniProt P11712). Nature of the data set: CYP enzyme inhibition, fluorescent substrate (MFC). Here is the method:
as §2, §3

In another data set the target is CYP1A2 (Homo sapiens (Human), UniProt P05177). Nature of the data set: CYP enzyme inhibition, fluorescent substrate (CEC). As to conditions: human, 15 min. The method, then: as §2
CYP1A2, sequence (P05177 whole entry): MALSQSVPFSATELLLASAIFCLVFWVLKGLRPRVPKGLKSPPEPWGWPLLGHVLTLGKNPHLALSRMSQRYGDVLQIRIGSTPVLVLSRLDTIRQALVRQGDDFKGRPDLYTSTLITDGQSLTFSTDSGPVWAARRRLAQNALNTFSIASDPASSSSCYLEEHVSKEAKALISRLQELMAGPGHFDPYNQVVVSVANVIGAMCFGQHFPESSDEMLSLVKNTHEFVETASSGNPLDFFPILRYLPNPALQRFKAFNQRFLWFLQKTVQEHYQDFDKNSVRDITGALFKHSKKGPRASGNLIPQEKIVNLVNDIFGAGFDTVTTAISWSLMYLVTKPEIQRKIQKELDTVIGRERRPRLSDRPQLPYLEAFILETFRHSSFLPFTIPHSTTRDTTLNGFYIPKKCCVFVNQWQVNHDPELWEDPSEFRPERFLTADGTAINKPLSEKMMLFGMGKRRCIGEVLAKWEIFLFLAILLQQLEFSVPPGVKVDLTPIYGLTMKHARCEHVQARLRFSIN
(§4) Compounds are dissolved in dimethyl sulfoxide to a concentration of 100 mM. These are diluted 1 μL into 82 μL of acetonitrile. An 11 μL aliquot of this solution is then added to 204 μL of cofactor mix (1.3% NADPH Regeneration system Solution A, 1.04% NADPH Regeneration system Solution B from BD Biosciences, 5% acetonitrile and 0.05% dimethyl sulfoxide). These are then serially diluted 1:1 (160 μL to 160 μL co-factor mix) for a total of 10 points. A 10 μL aliquot of this final mixture is dispensed into 384 well assay plates and incubated for 10 minutes at 37° C. Enzyme and substrate mix (10 μL; 0.5 pmol CYP1A2/5 μM CEC; 1.0 pmol CYP2C9/75 μM MFC; 0.5 pmol CYP2C19/25 μM CEC; 1.5 pmol CYP2D6/1.5 μM AMMC; 1.0 pmol CYP3A4/50 μM BFC; or 1.0 pmol CYP3A4/40 μM BQ) is added to these assay plates. Assay plates are incubated at 37° C. (CYP1A2-15 min; CYP2C9-45 min; CYP2C19, 2D6 and 3A4-30 min) and read in a Tecan Safire 2 plate reader (CYP1A2, 2C19 and 3A4 409 ex/460 em; CYP2C9 and 2D6 409 ex/530 em). The signal versus compound concentration is used to determine the IC50. The enzymes and substrates for this assay are obtained from BD Biosciences.

In data set [2] the target is B-Raf (Homo sapiens (Human), UniProt P15056). Nature of the data set: B-Raf kinase activity biochemical assay (AlphaScreen, biotin-MEK1 phosphorylation). The note with it: B-Raf. The method, then: as §1
B-Raf (Homo sapiens (Human), UniProt P15056), sequence (P15056 whole entry): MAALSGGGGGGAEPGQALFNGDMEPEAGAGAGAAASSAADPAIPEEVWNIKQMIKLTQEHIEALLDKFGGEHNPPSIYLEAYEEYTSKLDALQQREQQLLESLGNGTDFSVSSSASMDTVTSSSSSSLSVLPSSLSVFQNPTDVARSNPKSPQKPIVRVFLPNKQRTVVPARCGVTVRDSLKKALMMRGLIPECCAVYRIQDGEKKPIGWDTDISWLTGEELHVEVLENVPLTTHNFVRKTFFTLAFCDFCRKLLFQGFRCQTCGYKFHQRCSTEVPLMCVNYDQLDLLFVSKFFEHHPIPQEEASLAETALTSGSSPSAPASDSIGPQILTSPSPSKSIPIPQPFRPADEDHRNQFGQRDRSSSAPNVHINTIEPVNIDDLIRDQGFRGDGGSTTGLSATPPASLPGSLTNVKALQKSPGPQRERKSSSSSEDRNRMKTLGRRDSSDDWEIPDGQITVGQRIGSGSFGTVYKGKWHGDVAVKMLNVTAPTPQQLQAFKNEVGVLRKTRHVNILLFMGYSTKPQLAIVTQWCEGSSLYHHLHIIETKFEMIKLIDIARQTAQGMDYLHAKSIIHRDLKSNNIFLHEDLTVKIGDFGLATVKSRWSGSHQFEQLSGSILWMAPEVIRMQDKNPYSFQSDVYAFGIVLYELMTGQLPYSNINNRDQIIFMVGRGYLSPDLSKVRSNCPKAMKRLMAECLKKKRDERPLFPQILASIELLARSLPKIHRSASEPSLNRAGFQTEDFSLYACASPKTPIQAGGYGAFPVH
Data set [3] concerns B-Raf. The data set is described as above. The note with it: for Biochemical activity ratio B/V600E: ratio of IC50 B-Raf / B-Raf V600E; for Biochemical activity ratio B/C: ratio of IC50 B-Raf / c-Raf-1. Here is the method:
as §1

The target in the next data set is c-Raf-1 (Homo sapiens, UniProt P04049). Nature of the data set: c-Raf-1 kinase activity biochemical assay (AlphaScreen, biotin-MEK1 phosphorylation). Here is the method:
as §1

The target in a further data set is CYP2D6 (Homo sapiens (Human), UniProt P10635). Nature of the data set: CYP enzyme inhibition, fluorescent substrate (AMMC). It counts as in vitro ADME. The note with it: read-out: Cyp IC50 2D6. Here is the method:
as §2, §4

The mark [4] stands for this setting: read-out: Cyp IC50 2C19, CYP2C19, substrate CEC.
Setting [5] is: read-out: Cyp IC50 2C9, CYP2C9, substrate MFC.

CYP2D6, sequence (P10635 whole entry): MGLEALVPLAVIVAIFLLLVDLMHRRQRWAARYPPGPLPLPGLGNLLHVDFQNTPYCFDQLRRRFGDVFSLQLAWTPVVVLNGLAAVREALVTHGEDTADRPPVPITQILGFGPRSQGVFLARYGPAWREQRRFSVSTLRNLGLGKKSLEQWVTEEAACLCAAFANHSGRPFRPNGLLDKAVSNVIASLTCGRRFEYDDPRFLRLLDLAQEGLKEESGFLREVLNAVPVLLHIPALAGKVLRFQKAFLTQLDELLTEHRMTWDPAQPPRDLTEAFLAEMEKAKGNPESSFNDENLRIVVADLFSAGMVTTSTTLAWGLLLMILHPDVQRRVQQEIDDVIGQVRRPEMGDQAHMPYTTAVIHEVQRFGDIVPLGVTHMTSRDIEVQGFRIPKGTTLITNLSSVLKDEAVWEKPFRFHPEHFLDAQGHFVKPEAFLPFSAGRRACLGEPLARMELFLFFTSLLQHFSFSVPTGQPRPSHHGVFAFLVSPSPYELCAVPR
c-Raf-1, sequence (P04049 whole entry, looked up): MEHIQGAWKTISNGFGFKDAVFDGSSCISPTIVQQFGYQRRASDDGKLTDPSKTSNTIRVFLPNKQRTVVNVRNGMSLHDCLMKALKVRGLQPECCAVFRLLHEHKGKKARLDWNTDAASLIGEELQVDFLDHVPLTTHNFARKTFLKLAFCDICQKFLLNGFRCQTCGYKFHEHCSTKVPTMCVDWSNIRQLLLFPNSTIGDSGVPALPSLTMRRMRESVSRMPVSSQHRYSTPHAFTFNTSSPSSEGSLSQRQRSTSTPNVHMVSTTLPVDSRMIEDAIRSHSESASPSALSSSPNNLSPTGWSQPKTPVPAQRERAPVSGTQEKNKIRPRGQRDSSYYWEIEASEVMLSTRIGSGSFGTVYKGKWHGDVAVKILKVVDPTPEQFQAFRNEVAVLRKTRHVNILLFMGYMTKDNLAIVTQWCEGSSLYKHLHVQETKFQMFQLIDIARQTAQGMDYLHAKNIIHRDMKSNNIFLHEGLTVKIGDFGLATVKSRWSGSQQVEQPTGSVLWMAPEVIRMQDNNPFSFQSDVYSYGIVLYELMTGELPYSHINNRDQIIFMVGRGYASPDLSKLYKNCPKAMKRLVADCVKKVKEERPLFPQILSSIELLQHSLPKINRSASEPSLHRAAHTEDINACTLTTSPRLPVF
B-Raf V600E, sequence (P15056 whole entry V600E): as the sequence (P15056 whole entry) above, with V600E counted along it
CYP2C9, sequence (P11712 whole entry): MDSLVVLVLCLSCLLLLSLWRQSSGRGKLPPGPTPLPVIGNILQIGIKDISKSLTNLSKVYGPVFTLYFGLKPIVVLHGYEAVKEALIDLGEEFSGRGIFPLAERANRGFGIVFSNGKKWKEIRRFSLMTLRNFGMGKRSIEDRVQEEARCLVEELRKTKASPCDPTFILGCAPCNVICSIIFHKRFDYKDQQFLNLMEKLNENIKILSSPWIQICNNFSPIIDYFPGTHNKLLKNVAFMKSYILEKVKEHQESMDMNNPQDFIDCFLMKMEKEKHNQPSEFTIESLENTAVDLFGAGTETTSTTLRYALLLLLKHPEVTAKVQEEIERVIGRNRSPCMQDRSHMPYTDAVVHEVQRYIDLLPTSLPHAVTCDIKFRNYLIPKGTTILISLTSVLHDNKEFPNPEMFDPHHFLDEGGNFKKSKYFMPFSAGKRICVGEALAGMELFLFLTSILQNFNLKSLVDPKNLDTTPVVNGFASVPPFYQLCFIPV

As usually defined, the IC50 is the midpoint of a concentration-inhibition curve. As for `COc1ncnc2[nH]cc(C(=O)c3c(F)ccc(NS(=O)(=O)c4cc(C)cc(C)c4)c3F)c12` [P-1025, N-[2,4-Difluoro-3-(4-methoxy-7H-pyrrolo[2,3-d]pyrimidine-5-carbonyl)-phenyl]-3,5-dimethyl-benzenesulfonamide], the IC50 against B-Raf V600E is > 0.1 µM; against CYP3A4(BFC), 5 to 10 µM; at CYP2C19 (setting [4]), > 10 µM; on CYP2C9 (setting [5]), > 10 µM; at CYP1A2, > 10 µM; against B-Raf [2], > 0.1 µM. For the same compound, the IC50 on c-Raf-1 was < 0.1 µM; on CYP2D6, > 10 µM. The “Biochemical activity ratio V600E/C” value at B-Raf V600E is given as 0.1-10. Besides, the “turbidity threshold (L, M, H) 1.4” value in data set [1] is “M (moderate solubility if the threshold concentration is 31.3 μM to 250 μM)”. Further, the “turbidity threshold (L, M, H) 4.5” value in data set [1] was “L (low solubility if the threshold concentration is <31.3 μM)”. Moreover, the “turbidity threshold (L, M, H) 6.8” value in data set [1] is “M (moderate solubility if the threshold concentration is 31.3 μM to 250 μM)”. In the data set with B-Raf [3], the “Biochemical activity ratio B/V600E” value is reported as 0.1-10. Further, the “Biochemical activity ratio B/C” value in the data set on B-Raf [3] is recorded as >10.

For `O=C(c1c(F)ccc(NS(=O)(=O)c2ccc(C(F)(F)F)cc2)c1F)c1c[nH]c2nccc(NC3CCOCC3)c12` [P-2014, N-{2,4-Difluoro-3-[4-(tetrahydro-pyran-4-ylamino)-1H-pyrrolo[2,3-b]pyridine-3-carbonyl]-phenyl}-4-trifluoromethyl-benzenesulfonamide], on B-Raf V600E, the IC50 was > 0.1 µM and the “Biochemical activity ratio V600E/C” value is recorded as >10. Besides, in [1], the “turbidity threshold (L, M, H) 1.4” value is recorded as “L (low solubility if the threshold concentration is <31.3 μM)”; the “turbidity threshold (L, M, H) 4.5” value is on record as “L (low solubility if the threshold concentration is <31.3 μM)”; the “turbidity threshold (L, M, H) 6.8” value is given as “L (low solubility if the threshold concentration is <31.3 μM)”; the “turbidity threshold (L, M, H) 7.4” value is reported as “L (low solubility if the threshold concentration is <31.3 μM)”. Besides, the IC50 at B-Raf [2] is > 0.1 µM. Besides, in the data set on B-Raf [3], the “Biochemical activity ratio B/V600E” value is given as 0.1-10 and the “Biochemical activity ratio B/C” value is 0.1-10. Further, the IC50 against c-Raf-1 is < 0.1 µM.

On to `O=C(c1c(F)ccc(NS(=O)(=O)c2ccccc2)c1F)c1c[nH]c2nccc(C(F)(F)F)c12` [P-2017, N-[2,4-Difluoro-3-(4-trifluoromethyl-1H-pyrrolo[2,3-b]pyridine-3-carbonyl)-phenyl]-benzenesulfonamide], for which, at B-Raf V600E, the IC50 is > 0.1 µM and the “Biochemical activity ratio V600E/C” value was >10. Further, in data set [1], the “turbidity threshold (L, M, H) 1.4” value is given as “L (low solubility if the threshold concentration is <31.3 μM)”; the “turbidity threshold (L, M, H) 4.5” value is given as “L (low solubility if the threshold concentration is <31.3 μM)”; the “turbidity threshold (L, M, H) 6.8” value was “L (low solubility if the threshold concentration is <31.3 μM)”; the “turbidity threshold (L, M, H) 7.4” value was “M (moderate solubility if the threshold concentration is 31.3 μM to 250 μM)”. In addition, the IC50 against B-Raf [2] was > 0.1 µM. Besides, in the data set with B-Raf [3], the “Biochemical activity ratio B/V600E” value is reported as 0.1-10 and the “Biochemical activity ratio B/C” value is recorded as >10. The half-inhibitory concentration (IC50) against c-Raf-1 is < 0.1 µM.

Take `CCCc1ccc(S(=O)(=O)Nc2ccc(F)c(C(=O)c3c[nH]c4ncnc(OCC)c34)c2F)cc1` [P-1038, N-[3-(4-Ethoxy-7H-pyrrolo[2,3-d]pyrimidine-5-carbonyl)-2,4-difluoro-phenyl]-4-propyl-benzenesulfonamide]: the 50% inhibitory concentration (IC50) at B-Raf V600E is > 0.1 µM; against CYP3A4(BFC) it was 5 to 10 µM; at CYP2C19, 5 to 10 µM; against CYP2C9, 5 to 10 µM; against CYP1A2 it was > 10 µM; against B-Raf [2], < 0.1 µM. Moreover, the half-inhibitory concentration (IC50) against c-Raf-1 is < 0.1 µM; at CYP2D6, > 10 µM. Further, the “Biochemical activity ratio V600E/C” value at B-Raf V600E is on record as >10. In addition, the “Biochemical activity ratio B/V600E” value in the data set on B-Raf [3] was 0.1-10. Also, the “Biochemical activity ratio B/C” value in the data set on B-Raf [3] is reported as >10.

On to `CC(C)Cc1ncnc2[nH]cc(C(=O)c3c(F)ccc(NS(=O)(=O)c4ccc(C(F)(F)F)cc4)c3F)c12` [P-1015, N-[2,4-Difluoro-3-(4-isobutyl-7H-pyrrolo[2,3-d]pyrimidine-5-carbonyl)-phenyl]-4-trifluoromethyl-benzenesulfonamide], for which the 50% inhibitory concentration (IC50) against B-Raf V600E is > 0.1 µM; on CYP3A4(BFC), 5 to 10 µM; at CYP2C19 (setting [4]) it was > 10 µM; at CYP2C9 (setting [5]) it was > 10 µM; against CYP1A2, > 10 µM; against B-Raf [2], > 0.1 µM. Also, the figures for the concentration for half-maximal inhibition (IC50) at c-Raf-1 and on CYP2D6 were < 0.1 µM and > 10 µM, respectively. Also, the “Biochemical activity ratio V600E/C” value at B-Raf V600E is recorded as >10. Also, in the data set with B-Raf [3], the “Biochemical activity ratio B/V600E” value is 0.1-10. The “Biochemical activity ratio B/C” value in the data set with B-Raf [3] is >10.
